In PMC11857663, “Geliboluols A–D: Kaurane-Type Diterpenoids from the Marine-Derived Rare Actinomycete Actinomadura geliboluensis” (Marine Drugs, 2025) one finds GI50 data, which are given here for six compounds.

Each structure is given as a SMILES string.

What is called GI50 is the concentration that inhibits growth by half.

Holding throughout (assay type): cell-based
Assay [1] concerns HL-60 (acute myelogenous leukemia, AML). In words: CellTiter-Glo (CTG) cytotoxicity assay, HL-60. The settings on record: Homo sapiens; HL-60, CTG assay, 48 h; read-out: Growth inhibition 50% (GI50) HL-60. The method, then: (§1) Compounds 1–5 were evaluated for their cytotoxicity against seven blood cancer cell lines, the most common cancer types in Korea, along with a normal cell line: HL-60 (acute myelogenous leukemia, AML), Raji (Burkitt’s lymphoma), WSU-DLCL2 (diffuse large B-cell lymphoma, DLBCL), NALM6 C. G5 (B-cell acute lymphocytic leukemia, B-ALL), K562 (chronic myelogenous leukemia, CML), RPMI-8402 (T-cell acute lymphocytic leukemia, T-ALL), U266 (multiple myeloma), and RPMI-1788 (B lymphocytes, normal cell line).
(§2) The cytotoxicity test was conducted with CTG luminescent cell viability and SRB assay according to the published procedures. Briefly, blood cancer cell lines and a normal cell line were obtained from the American Type Culture Collection (Manassas, VA, USA) (HL-60: acute myelogenous leukemia, Raji: Burkitt’s lymphoma, NALM6 C. G5: B-cell acute lymphocytic leukemia, K562: chronic myelogenous leukemia, U266: multiple myeloma, and RPMI-1788: B lymphocytes) and the DSMZ-German Collection of Microorganisms and Cell Cultures (WSU-DLCL2: diffuse large B-cell lymphoma and RPMI-8402: T-cell acute lymphocytic leukemia). The cell lines were incubated in RPMI 1640 supplemented with 10% fetal bovine serum, penicillin (100 IU/mL), and streptomycin (100 µg/mL) at 37 °C under a humidified atmosphere of 5% CO2. The cells with a passage number between 8 and 12 were used. The cell lines were prepared in an opaque-walled 96-well plate (8 × 10^3 cells/well), and the compounds (1–5 and doxorubicin as a positive control) with 0.1% DMSO were added to each well and incubated for 48 h. The cell cultures were then treated with 100 µL of CellTiter-Glo Reagent (Promega, Madison, WI, USA) and kept for 10 min to acquire a luminescence signal. Luminescence measurements were performed with the GloMax-Multi Detection System (Promega, Madison, WI, USA). The solid cancer cell lines and the normal cell line were obtained from the American Type Culture Collection (Manassas, VA, USA) (ACHN: renal, MDA-MB-231: breast, PC-3: prostate, NCI-H23: lung, HCT-15: colon, and MRC-9: lung fibroblast) and the Japanese Cancer Research Resources Bank (JCRB) (NUGC-3: stomach). The cell lines were incubated in RPMI 1640 supplemented with 10% fetal bovine serum, penicillin (100 IU/mL), and streptomycin (100 µg/mL) at 37 °C under a humidified atmosphere of 5% CO2. The cells with a passage number between 8 and 12 were used. The cells were then prepared in a 96-well plate (8 × 10^3 cells/well), and the compounds (1–5 and adriamycin as a positive control) with 0.1% DMSO were added to each well. After incubation for 48 h, the cell cultures were fixed using 50% trichloroacetic acid ([…]) and were dyed with 0.4% SRB in 1% acetic acid. Unbound dye was washed using 1% acetic acid and protein-bound dye was collected with 10 mM Tris base (pH 10.5) to measure optical density. Absorbance was measured at 540 nm with a VersaMax microplate reader (Molecular Devices, Sunnyvale, CA, USA) and GI50 values were calculated by GraphPad Prism 4.0 (GraphPad, San Diego, CA, USA).
A general note: ATP-based viability assays read luminescence as a measure of living cells.

Assay [2] relates to Raji (Burkitt's lymphoma). In words: CellTiter-Glo (CTG) cytotoxicity assay, Raji. To be noted: Homo sapiens, 48 h, read-out: Growth inhibition 50% (GI50) Raji. The method, then: as §1, §2
Assay [3] deals with WSU-DLCL2 (diffuse large B-cell lymphoma, DLBCL). Description: CellTiter-Glo (CTG) cytotoxicity assay, WSU-DLCL2. The settings on record: Homo sapiens, WSUDLCL2, 48 h, read-out: Growth inhibition 50% (GI50) WSU-DLCL2. The method, then:
as §1, §2

In assay [4] the test system is NALM6 C. G5 (B-cell acute lymphocytic leukemia, B-ALL). Description: CellTiter-Glo (CTG) cytotoxicity assay, NALM6 C. G5. The settings on record: Homo sapiens, NALM-6, 48 h, read-out: Growth inhibition 50% (GI50) NALM6 C. G5. The procedure:
as §1, §2

Assay [5] has as its system K562 (chronic myelogenous leukemia, CML). Description: CellTiter-Glo (CTG) cytotoxicity assay, K562. The settings on record: Homo sapiens, 48 h, read-out: Growth inhibition 50% (GI50) K562. The procedure:
as §1, §2

The subject of assay [6] is RPMI-8402 (T-cell acute lymphocytic leukemia, T-ALL). Description: CellTiter-Glo (CTG) cytotoxicity assay, RPMI-8402. The settings on record: Homo sapiens; RPMI-8402, CTG assay, 48 h; read-out: Growth inhibition 50% (GI50) RPMI-8402. The method, then: as §1, §2
The subject of a further assay is U266 (multiple myeloma). Description: CellTiter-Glo (CTG) cytotoxicity assay, U266. To be noted: Homo sapiens, U-266, 48 h, read-out: Growth inhibition 50% (GI50) U266. The method, then: as §1, §2
For assay [7], the system named is RPMI-1788 (B lymphocytes, normal cell line). Description: CellTiter-Glo (CTG) cytotoxicity assay, RPMI-1788 normal cell line. The settings on record: 48 h, read-out: Growth inhibition 50% (GI50) RPMI-1788. The procedure: as §1, §2
Another assay concerns ACHN (renal). In words: Sulforhodamine B (SRB) cytotoxicity assay, ACHN. To be noted: Homo sapiens, 48 h, read-out: Growth inhibition 50% (GI50) ACHN. The procedure:
(§3) Compounds 1–5 were further evaluated for their cytotoxicity against six solid cancer cell lines and a normal cell line: ACHN (renal), MDA-MB-231 (breast), PC-3 (prostate), NUGC-3 (stomach), NCI-H23 (lung), HCT-15 (colon), and MRC-9 (lung fibroblast, normal cell line). […] Additionally, compounds 1–5 were evaluated for their antimicrobial properties by applying the broth microdilution method, described by the Clinical and Laboratory Standards Institute, against three Gram-positive bacteria, Bacillus subtilis (KCTC 1021), Micrococcus luteus (KCTC 1915), and Staphylococcus aureus (KCTC 1927), and three Gram-negative bacteria, Escherichia coli (KCTC 2441), Salmonella enterica serovar Typhimurium (KCTC 2515), and Klebsiella pneumoniae (KCTC 2690).
as §2
In general terms: The SRB assay estimates cell density from bound dye.

In a further assay the test system is MDA-MB-231 (breast). In words: Sulforhodamine B (SRB) cytotoxicity assay, MDA-MB-231. To be noted: Homo sapiens; MDA-MB-231, SRB assay, 48 h; read-out: Growth inhibition 50% (GI50) MDA-MB-231. The method, then:
as §3, §2

In another assay the test system is PC-3 (prostate). Description: Sulforhodamine B (SRB) cytotoxicity assay, PC-3. To be noted: PC-3, SRB assay, 48 h; read-out: Growth inhibition 50% (GI50) PC-3. The procedure: as §3, §2
The test system of a further assay is NUGC-3 (stomach). In words: Sulforhodamine B (SRB) cytotoxicity assay, NUGC-3. To be noted: Homo sapiens; NUGC-3, SRB assay, 48 h; read-out: Growth inhibition 50% (GI50) NUGC-3. The method, then:
as §3, §2

The next assay concerns NCI-H23 (lung). Description: Sulforhodamine B (SRB) cytotoxicity assay, NCI-H23. To be noted: Homo sapiens, 48 h, read-out: Growth inhibition 50% (GI50) NCI-H23. The procedure: as §3, §2
For another assay, the system named is HCT-15 (colon). Description: Sulforhodamine B (SRB) cytotoxicity assay, HCT-15. To be noted: Homo sapiens; HCT-15, SRB assay, 48 h; read-out: Growth inhibition 50% (GI50) HCT-15. The method, then: as §3, §2
For assay [8], the system named is MRC-9 (lung fibroblast, normal cell line). In words: Sulforhodamine B (SRB) cytotoxicity assay, MRC-9 normal cell line. The settings on record: MRC9, 48 h, read-out: Growth inhibition 50% (GI50) MRC-9. The procedure: as §3, §2
The test system of the next assay is blood cancer cell lines. In words: CTG cytotoxicity assay, panel of blood cancer cell lines. To be noted: 48 h, read-out: GI50 values against blood cancer cell lines (range over the panel). The method, then: as §1
(§4) The cytotoxicity test was conducted with CTG luminescent cell viability and SRB assay according to the published procedures. […] The cell cultures were then treated with 100 µL of CellTiter-Glo Reagent (Promega, Madison, WI, USA) and kept for 10 min to acquire a luminescence signal. Luminescence measurements were performed with the GloMax-Multi Detection System (Promega, Madison, WI, USA). […] Absorbance was measured at 540 nm with a VersaMax microplate reader (Molecular Devices, Sunnyvale, CA, USA) and GI50 values were calculated by GraphPad Prism 4.0 (GraphPad, San Diego, CA, USA).

The next assay concerns solid cancer cell lines. Description: SRB cytotoxicity assay, panel of solid cancer cell lines. The settings on record: six solid cancer cell lines or the normal cell line, 48 h, read-out: GI50 values against solid cancer cell lines (range over the panel). The procedure: as §3, §4

Turning to `C=C1C[C@@]23C[C@@H]1CC[C@]2(O)[C@@]1(C)CCC[C@@](C)(CO)[C@@H]1[C@H](O)C3` [compound 3, geliboluol C], the GI50 in assay [1], in assay [2], in [3], in assay [4], in [5] and in assay [6] was greater than 30 µM in each case. Also, the GI50 (in the assay on U266 (multiple myeloma); in [7]; with ACHN (renal); in the assay with MDA-MB-231 (breast); in the assay with PC-3 (prostate); with NUGC-3 (stomach)) was greater than 30 µM in each case. In addition, the GI50 (in the assay on NCI-H23 (lung); in the assay on HCT-15 (colon); in assay [8]) was greater than 30 µM in each case.
In the case of `C=C1C[C@@]23C[C@@H]1CC[C@]2(O)[C@@]1(C)CC[C@H](O)C(C)(C)[C@@H]1[C@H](O)C3` [compound 1, geliboluol A], the GI50 in [1], in assay [2], in assay [3], in [4], in [5] and in assay [6] was greater than 30 µM throughout. Besides, the GI50 (with U266 (multiple myeloma); in assay [7]; in the assay with ACHN (renal); in the assay with MDA-MB-231 (breast); with PC-3 (prostate); in the assay with NUGC-3 (stomach)) was greater than 30 µM throughout. Further, the GI50 (in the assay with NCI-H23 (lung); with HCT-15 (colon); in assay [8]) was greater than 30 µM each time.
Consider `C=C1C[C@@]23C[C@@H]1CC[C@]2(O)[C@@]1(C)CCCC(C)(C)[C@@H]1[C@H](O)C3` [compound 5], for which the GI50 in assay [1] is 16.4 µM; in assay [2], 4.58 µM; in assay [3], 5.93 µM; in assay [4], 7.34 µM; in assay [5], 11.9 µM; in assay [6], 11.1 µM. For the same compound, the GI50 in the assay with U266 (multiple myeloma) was 22.5 µM; in [7], 9.56 µM; with ACHN (renal) it was greater than 30 µM; in the assay with MDA-MB-231 (breast), greater than 30 µM; in the assay with PC-3 (prostate) it was greater than 30 µM; with NUGC-3 (stomach), greater than 30 µM. Moreover, the GI50 (with NCI-H23 (lung); with HCT-15 (colon); in assay [8]) was greater than 30 µM each time.
In the case of `C=C1C[C@@]23C[C@@H]1CC[C@]2(O)[C@@]1(C)[C@@H](O)CCC(C)(C)[C@@H]1[C@H](O)C3` [compound 2, geliboluol B], the GI50 in assay [1], in assay [2], in [3], in assay [4], in assay [5] and in [6] was greater than 30 µM in each case. The GI50 (in the assay on U266 (multiple myeloma); in [7]; with ACHN (renal); with MDA-MB-231 (breast); in the assay on PC-3 (prostate); with NUGC-3 (stomach)) was greater than 30 µM each time. Also, the GI50 (with NCI-H23 (lung); in the assay on HCT-15 (colon); in assay [8]) was greater than 30 µM throughout.
For the compound `C=C1C2CCC3(O)C4(C)CCCC(C)(CO)C4C(O)CC3(C2)C1O` (centres unmarked) [compound 4, geliboluol D], the GI50 in assay [1] came out at 11.2 µM; in assay [2], 2.73 µM; in assay [3] it was 3.48 µM; in assay [4] it was 2.59 µM; in assay [5], 19.6 µM; in assay [6], 8.51 µM. Moreover, the GI50 is greater than 30 µM in the assay with U266 (multiple myeloma); 4.52 µM in assay [7]; 4.58 µM with ACHN (renal); 5.73 µM in the assay on MDA-MB-231 (breast); 6.5 µM in the assay with PC-3 (prostate); 4.34 µM in the assay on NUGC-3 (stomach). For the same compound, the concentration for 50% growth inhibition (GI50) in the assay with NCI-H23 (lung) was 5.13 µM; with HCT-15 (colon) it was 5.73 µM; in [8], 7.23 µM; in the assay with blood cancer cell lines it was 2.59 to 19.6 µM; in the assay on solid cancer cell lines, 4.34 to 7.23 µM.
Turning to `COc1cccc2c1C(=O)c1c(O)c3c(c(O)c1C2=O)C[C@@](O)(C(=O)CO)C[C@@H]3O[C@H]1C[C@H](N)[C@H](O)[C@H](C)O1` [Doxorubicin, reference compound], the GI50 stood at 0.029 µM in assay [1]; 0.014 µM in [2]; 0.008 µM in assay [3]; 0.007 µM in assay [4]; 0.094 µM in [5]; 0.035 µM in assay [6]. Further, the GI50 turned out to be 0.112 µM in the assay on U266 (multiple myeloma); 0.012 µM in assay [7]; 0.222 µM in the assay with ACHN (renal); 0.21 µM in the assay on MDA-MB-231 (breast); 0.106 µM in the assay on PC-3 (prostate); 0.245 µM with NUGC-3 (stomach). Also, the figures for the GI50 (with NCI-H23 (lung); in the assay on HCT-15 (colon); in assay [8]) were 0.221 µM, 0.305 µM and 0.314 µM, respectively.
